# Bridge positions count the residues as written; N and C are the ends. Square brackets hold non-standard residues; d marks the D form. Peptide text beside a SMILES is read from it. NMeL = CN[C@@H](CC(C)C)C(=O)O; Phg = N[C@H](C(=O)O)c1ccccc1; NMeV = CN[C@H](C(=O)O)C(C)C; Aib = CC(C)(N)C(=O)O; Sar = CNCC(=O)O
# Molecular target: ACA-6501
# Test: Competitive binding peptide ACA ELISA, cardiolipin/β2-GPI-coated plates
# Design: species or system human
# Settings: Optimization of Peptide 3G3; inf = no 50% inhibition
# Procedure: A variation of this assay uses microtitration plates coated with human β2-glycoprotein I/cardiolipin (β2-GPI/CL) instead of tetravalent peptide and tests the ability of monomeric peptides to block the binding of aPL antibody to the epitope(s) on β2-GPI/CL. In this assay, IgG-depleted human serum at an optimized concentration is used as a source of β2-GPI. The monomeric peptides at several concentrations are incubated with an optimized concentration of aPL antibody in a manner analogous to the assay which employs tetravalent peptide as a plate substrate. Following the incubation of aPL/peptide in (β2-GPI/CL) plates, antibody binding and the peptide concentration required for 50% inhibition is determined at half-maximal absorbance as in the tetravalent assay.
# Peptide sequences for all five peptides immediately follow the table. All were tested using the competitive binding peptide ACA ELISA using CL/β2-GPI plates as described herein.
# (B) Immulon I® 96-well, flat-bottom, polystyrene microtitration plates (Dynatech Laboratories, Inc., Chantilly, Va.) were coated with 30 μL/well of cardiolipin (CL, 50 μg; Sigma Chemical Co., St. Louis, Mo.) in ethanol. Two control wells received 30 μL ethanol only. After overnight evaporation at 4° C., each well was blocked with 200 μL of 5% (w/v) fish gelatin in PBS for 2 hours at RT.
# During this incubation, variable amounts of each of six peptides were mixed with 22 μL ACA-6501 serum diluted with 3% fish gelatin in 1:1 TBS/PBS (final dilution of 1:400) in a final volume of 220 μL using Eppendorf microcentrifuge tubes. Specifically, in tube #1 were mixed 181.3 μL of 3% fish gelatin in TBS-PBS, 16.7 μL of peptide stock solution plus 22 μL of ACA-6501 serum diluted 40 times in 3% fish gelatin/TBS-PBS. Stock solutions ranged from 450-800 μg/mL for peptides #951 (diserine non-cyclized negative control), #952 (a lot of LJP 690), and thioethers CCTE-3G3, CHTE-3G3, HCTE-3G3 and HHTE-3G3. To tube #2 the following were added: 148 μL fish gelatin/TBS-PBS, […] of peptide stock solution, plus 22 μL of 40 times diluted ACA-6501 serum. Tube #3 contained 48 μL fish gelatin/TBS-PBS, […] of peptide stock solution, plus 22 μL of 40 times diluted ACA-6501 serum. The control tube #4 received 396 μL fish gelatin/TBS-PBS and 44 μL of 40 times diluted ACA-6501 serum (no peptide). Each of the tubes incubated for approximately 1 hour at RT.
# The CL/β2-GPI microtitration plate was washed 5 times with TBS and 100 μL aliquots in duplicate from Eppendorf tubes #1, 2, 3, and 4 containing the antibody-peptide (or no peptide mixtures) were added to the wells. A volume of 100 μL from tube #4 was added to the duplicate control wells containing no cardiolipin. The microtitration plate was incubated for 1 hour at RT with agitation at 40 rpm in an orbital shaker (American Scientific, Rotator V), washed 5 times with TBS and then 100 μL of 1:1000 goat anti-human IgG alkaline phosphatase conjugate (Zymed, Cat No. 62-8422) in 0.5% (w/v) BSA-TBS was added. Following incubation for 1 hour at RT, the microtitration plate was again washed 5 times with TBS and the colorimetric enzyme detection developed by adding 100 μL of PMPP solution (7.8 g phenolphthalein monophosphate plus 69.5 g of 2-amino-2-methyl-1-propanol in 100 mL water stock solution diluted 1:26 with water). After 21 minutes, the reaction was stopped by adding 50 μL of 0.2 M Na2HPO4 (Mallinckrodt) to each well. Absorbance at 550 nm was read in a microplate reader (Bio-Tek Instruments, Model EL 311). The amount of peptide that inhibited ACA-6501 binding by 50%, the IC50, was calculated from the graph at the intersection of half-maximal absorbance with amount of peptide added.
row,Compound,with ACA 6501 150 ug/mL [µg/mL]
1,CC(C)C[C@@H]1NC(=O)[C@H](c2ccccc2)NC(=O)CNC(=O)[C@H](CC(C)C)NC(=O)[C@H](C(C)C)NC(=O)CNC(=O)[C@H](CC(C)C)NC(=O)[C@@H](N)CSSC[C@@H](C(=O)O)NC1=O [C L G V L Gp G L C] (H-CLGVLG[Phg]LC-OH; disulfide 1-9),230
2,CC(C)C[C@@H]1NC(=O)[C@H](CCCCN)NC(=O)[C@@H]2CCCN2C(=O)[C@H](CC(C)C)NC(=O)[C@H](C(C)C)NC(=O)CNC(=O)[C@H](CC(C)C)NC(=O)[C@@H](N)CSSC[C@@H](C(=O)O)NC1=O [C L G V L P K L C] (H-CLGVLPKLC-OH; disulfide 1-9),350
3,CC(C)C[C@@H]1NC(=O)[C@H](CCCCN)NC(=O)C(C)(C)NC(=O)[C@H](CC(C)C)NC(=O)[C@H](C(C)C)NC(=O)CNC(=O)[C@H](CC(C)C)NC(=O)[C@@H](N)CSSC[C@@H](C(=O)O)NC1=O [C L G V L aiB K L C] (H-CLGVL[Aib]KLC-OH; disulfide 1-9),110
4,CC(C)C[C@@H]1NC(=O)[C@H](CCCCN)NC(=O)[C@@H](C)NC(=O)[C@H](CC(C)C)NC(=O)[C@H](C(C)C)NC(=O)CNC(=O)[C@H](CC(C)C)NC(=O)[C@@H](N)CSSC[C@@H](C(=O)O)NC1=O [C L G V L dA K L C] (H-CLGVL[dA]KLC-OH; disulfide 1-9),140
5,CC(C)C[C@@H]1NC(=O)[C@H](CCCCN)NC(=O)CN(C)C(=O)[C@H](CC(C)C)NC(=O)[C@H](C(C)C)NC(=O)CNC(=O)[C@H](CC(C)C)NC(=O)[C@@H](N)CSSC[C@@H](C(=O)O)NC1=O [C L G V L nG K L C] (H-CLGVL[Sar]KLC-OH; disulfide 1-9),550
6,CC(C)C[C@@H]1NC(=O)[C@H](CCCCN)NC(=O)[C@H](c2ccccc2)NC(=O)[C@H](CC(C)C)NC(=O)[C@H](C(C)C)NC(=O)CNC(=O)[C@H](CC(C)C)NC(=O)[C@@H](N)CSSC[C@@H](C(=O)O)NC1=O [C L G V Lp G K L C] (H-CLGVL[Phg]KLC-OH; disulfide 1-9),30
7,CC(C)C[C@@H]1NC(=O)[C@H](CCCCN)NC(=O)CNC(=O)[C@@H](CC(C)C)NC(=O)[C@H](C(C)C)NC(=O)CNC(=O)[C@H](CC(C)C)NC(=O)[C@@H](N)CSSC[C@@H](C(=O)O)NC1=O [C L G V dL G K L C] (H-CLGV[dL]GKLC-OH; disulfide 1-9),230
8,CC(C)C[C@@H]1NC(=O)[C@H](CCCCN)NC(=O)CNC(=O)[C@H](CC(C)C)N(C)C(=O)[C@H](C(C)C)NC(=O)CNC(=O)[C@H](CC(C)C)NC(=O)[C@@H](N)CSSC[C@@H](C(=O)O)NC1=O [C L G V nL G K L C] (H-CLGV[NMeL]GKLC-OH; disulfide 1-9),180
9,CC(C)C[C@@H]1NC(=O)[C@H](CCCCN)NC(=O)CNC(=O)[C@H](c2ccccc2)NC(=O)[C@H](C(C)C)NC(=O)CNC(=O)[C@H](CC(C)C)NC(=O)[C@@H](N)CSSC[C@@H](C(=O)O)NC1=O [C L G Vp G G K L C] (H-CLGV[Phg]GKLC-OH; disulfide 1-9),35
10,CC(C)C[C@@H]1NC(=O)[C@H](CCCCN)NC(=O)CNC(=O)[C@H](CC(C)C)NC(=O)C(C)(C)NC(=O)CNC(=O)[C@H](CC(C)C)NC(=O)[C@@H](N)CSSC[C@@H](C(=O)O)NC1=O [C L G aiB L G K L C] (H-CLG[Aib]LGKLC-OH; disulfide 1-9),110
11,CC(C)C[C@@H]1NC(=O)[C@H](CCCCN)NC(=O)CNC(=O)[C@H](CC(C)C)NC(=O)[C@@H](C(C)C)NC(=O)CNC(=O)[C@H](CC(C)C)NC(=O)[C@@H](N)CSSC[C@@H](C(=O)O)NC1=O [C L G dV L G K L C] (H-CLG[dV]LGKLC-OH; disulfide 1-9),260
12,CC(C)C[C@@H]1NC(=O)[C@H](CCCCN)NC(=O)CNC(=O)[C@H](CC(C)C)NC(=O)[C@H](C(C)C)N(C)C(=O)CNC(=O)[C@H](CC(C)C)NC(=O)[C@@H](N)CSSC[C@@H](C(=O)O)NC1=O [C L G nV L G K L C] (H-CLG[NMeV]LGKLC-OH; disulfide 1-9),220
13,CC(C)C[C@@H]1NC(=O)[C@H](CCCCN)NC(=O)CNC(=O)[C@H](CC(C)C)NC(=O)[C@H](c2ccccc2)NC(=O)CNC(=O)[C@H](CC(C)C)NC(=O)[C@@H](N)CSSC[C@@H](C(=O)O)NC1=O [C L G pG L G K L C] (H-CLG[Phg]LGKLC-OH; disulfide 1-9),70
14,CC(C)C[C@@H]1NC(=O)[C@H](CCCCN)NC(=O)CNC(=O)[C@H](CC(C)C)NC(=O)[C@H](C(C)C)NC(=O)[C@@H]2CCCN2C(=O)[C@H](CC(C)C)NC(=O)[C@@H](N)CSSC[C@@H](C(=O)O)NC1=O [C L P V L G K L C] (H-CLPVLGKLC-OH; disulfide 1-9),340
15,CC(C)C[C@@H]1NC(=O)[C@H](CCCCN)NC(=O)CNC(=O)[C@H](CC(C)C)NC(=O)[C@H](C(C)C)NC(=O)C(C)(C)NC(=O)[C@H](CC(C)C)NC(=O)[C@@H](N)CSSC[C@@H](C(=O)O)NC1=O [C L aiB V L G K L C] (H-CL[Aib]VLGKLC-OH; disulfide 1-9),80
16,CC(C)C[C@@H]1NC(=O)[C@H](CCCCN)NC(=O)CNC(=O)[C@H](CC(C)C)NC(=O)[C@H](C(C)C)NC(=O)CN(C)C(=O)[C@H](CC(C)C)NC(=O)[C@@H](N)CSSC[C@@H](C(=O)O)NC1=O [C L nG V L G K L C] (H-CL[Sar]VLGKLC-OH; disulfide 1-9),70
17,CC(C)C[C@@H]1NC(=O)[C@H](CCCCN)NC(=O)CNC(=O)[C@H](CC(C)C)NC(=O)[C@H](C(C)C)NC(=O)[C@H](c2ccccc2)NC(=O)[C@H](CC(C)C)NC(=O)[C@@H](N)CSSC[C@@H](C(=O)O)NC1=O [C L pG V L G K L C] (H-CL[Phg]VLGKLC-OH; disulfide 1-9),70
18,CC(C)C[C@@H]1NC(=O)[C@H](CCCCN)NC(=O)CNC(=O)[C@H](CC(C)C)NC(=O)[C@H](C(C)C)NC(=O)CNC(=O)[C@@H]2CCCN2C(=O)[C@@H](N)CSSC[C@@H](C(=O)O)NC1=O [C P G V L G K L C] (H-CPGVLGKLC-OH; disulfide 1-9),160
19,CC(C)C[C@@H]1NC(=O)[C@H](CCCCN)NC(=O)CNC(=O)[C@H](CC(C)C)NC(=O)[C@H](C(C)C)NC(=O)CNC(=O)[C@H](C(C)C)NC(=O)[C@@H](N)CSSC[C@@H](C(=O)O)NC1=O [C V G V L G K L C] (H-CVGVLGKLC-OH; disulfide 1-9),130
20,CC(C)C[C@@H]1NC(=O)[C@H](CCCCN)NC(=O)CNC(=O)[C@H](CC(C)C)NC(=O)[C@H](C(C)C)NC(=O)CNC(=O)C(C)(C)NC(=O)[C@@H](N)CSSC[C@@H](C(=O)O)NC1=O [C aiB G V L G K L C] (H-C[Aib]GVLGKLC-OH; disulfide 1-9),370
21,CC(C)C[C@@H]1NC(=O)[C@H](CCCCN)NC(=O)CNC(=O)[C@H](CC(C)C)NC(=O)[C@H](C(C)C)NC(=O)CNC(=O)[C@H](c2ccccc2)NC(=O)[C@@H](N)CSSC[C@@H](C(=O)O)NC1=O [C pG G V L G K L C] (H-C[Phg]GVLGKLC-OH; disulfide 1-9),130
22,CC(C)C[C@@H]1NC(=O)[C@H](CCCCN)NC(=O)CNC(=O)[C@H](CC(C)C)NC(=O)[C@H](C(C)C)NC(=O)CNC(=O)[C@@H](CC(C)C)NC(=O)[C@@H](N)CSSC[C@@H](C(=O)O)NC1=O [CdL G V L G K L C] (H-C[dL]GVLGKLC-OH; disulfide 1-9),180

# — US20040009904A1, “APL immunoreactive peptides, conjugates thereof and methods of treatment for aPL antibody-mediated pathologies” (priority 1995, published 2004)
